Results as given in US6358885B1, “Substituted phenylheterocyclic herbicides” (Mississippi State University, priority 1992, dated 2002).

How the values were obtained:
Assay in all cases: Test B preemergence/postemergence greenhouse plant response rating 0 to 10
morningglory = type: in vivo, Ipomoea hederacea; details: 0 to 10 scale
Outline: (§1)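 Both application timings were run together: seeds got compound preemergence, and established seedlings (two to eighteen cm) got it postemergence. Non-phytotoxic solvent carried the chemical. Ratings are visual, versus controls, at twelve to sixteen days.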

wheat = type: in vivo, Triticum aestivum; details: 0 to 10 scale
Outline: as §1

cocklebur = type: in vivo, Xanthium pensylvanicum; details: 0 to 10 scale
Outline: as §1

wild buckwheat = type: in vivo, Polygonum convolvulus; details: POSTEMERGENCE, 0 to 10 scale
Outline: as §1

soybean = type: in vivo, Glycine max; details: 0 to 10 scale
Outline: as §1

velvetleaf = type: in vivo, Abutilon theophrasti; details: 0 to 10 scale
Outline: as §1

barley = type: in vivo, Hordeum vulgare; details: 0 to 10 scale
Outline: as §1

sorghum = type: in vivo, Sorghum bicolor; details: 0 to 10 scale
Outline: as §1

rice = type: in vivo, Oryza sativa; details: 0 to 10 scale
Outline: as §1

purple nutsedge = type: in vivo, Cyperus rotundus; details: 0 to 10 scale
Outline: as §1

barnyardgrass = type: in vivo, Echinochloa crus-galli; details: 0 to 10 scale
Outline: as §1

chickweed = type: in vivo, Stellaria media; details: 0 to 10 scale
Outline: as §1

sugar beet = type: in vivo, Beta vulgaris; details: 0 to 10 scale
Outline: as §1

bedstraw = type: in vivo, Galium aparine; details: 0 to 10 scale
Outline: as §1

crabgrass = type: in vivo, Digitaria spp.; details: 0 to 10 scale
Outline: as §1

rape = type: in vivo, Brassica napus; details: 0 to 10 scale
Outline: as §1

cheatgrass = type: in vivo, Bromus secalinus; details: 0 to 10 scale
Outline: as §1

lambsquarters = type: in vivo, Chenopodium album; details: 0 to 10 scale
Outline: as §1

blackgrass = type: in vivo, Alopecurus myosuroides; details: 0 to 10 scale
Outline: as §1

cotton = type: in vivo, Gossypium hirsutum; details: 0 to 10 scale
Outline: as §1

giant foxtail = type: in vivo, Setaria faberii; details: 0 to 10 scale
Outline: as §1

wild oat = type: in vivo, Avena fatua; details: 0 to 10 scale
Outline: as §1

corn = type: in vivo, Zea mays; details: 0 to 10 scale
Outline: as §1

CCCCN1C(=O)COc2cc(F)c(-c3nn4c(c3Cl)CCCC4)cc21 [Compound 57] was tested, and the “Plant response rating, Morningglory” value (morningglory; POSTEMERGENCE, Rate 10 g/ha) was 10, the “Plant response rating, Morningglory” value (morningglory; POSTEMERGENCE, Rate 50 g/ha) was 10 and the “Plant response rating, Morningglory” value (morningglory; PREEMERGENCE, Rate 50 g/ha) was 10. The “Plant response rating, Wheat” value (wheat; POSTEMERGENCE, Rate 10 g/ha) was 7, the “Plant response rating, Wheat” value (wheat; POSTEMERGENCE, Rate 50 g/ha) was 7 and the “Plant response rating, Wheat” value (wheat; PREEMERGENCE, Rate 50 g/ha) was 2. The “Plant response rating, Cocklebur” value (cocklebur; POSTEMERGENCE, Rate 10 g/ha) was 9, the “Plant response rating, Cocklebur” value (cocklebur; POSTEMERGENCE, Rate 50 g/ha) was 9 and the “Plant response rating, Cocklebur” value (cocklebur; PREEMERGENCE, Rate 10 g/ha) was 0. For the same molecule, the “Plant response rating, Cocklebur” value (cocklebur; PREEMERGENCE, Rate 50 g/ha) was 3, the “Plant response rating, Wild buckwheat” value (wild buckwheat; Rate 10 g/ha) was 10 and the “Plant response rating, Wild buckwheat” value (wild buckwheat; Rate 50 g/ha) was 10. The “Plant response rating, Soybean” value (soybean; POSTEMERGENCE, Rate 10 g/ha) was 6, the “Plant response rating, Soybean” value (soybean; POSTEMERGENCE, Rate 50 g/ha) was 8 and the “Plant response rating, Soybean” value (soybean; PREEMERGENCE, Rate 50 g/ha) was 0. For the same molecule, the “Plant response rating, Velvetleaf” value (velvetleaf; POSTEMERGENCE, Rate 10 g/ha) was 6, the “Plant response rating, Velvetleaf” value (velvetleaf; POSTEMERGENCE, Rate 50 g/ha) was 9 and the “Plant response rating, Velvetleaf” value (velvetleaf; PREEMERGENCE, Rate 50 g/ha) was 10. The “Plant response rating, Barley” value (barley; POSTEMERGENCE, Rate 10 g/ha) was 4, the “Plant response rating, Barley” value (barley; POSTEMERGENCE, Rate 50 g/ha) was 4 and the “Plant response rating, Barley” value (barley; PREEMERGENCE, Rate 10 g/ha) was 0. For the same molecule, the “Plant response rating, Barley” value (barley; PREEMERGENCE, Rate 50 g/ha) was 0, the “Plant response rating, Sorghum” value (sorghum; POSTEMERGENCE, Rate 10 g/ha) was 2 and the “Plant response rating, Sorghum” value (sorghum; POSTEMERGENCE, Rate 50 g/ha) was 4. For the same molecule, the “Plant response rating, Sorghum” value (sorghum; PREEMERGENCE, Rate 50 g/ha) was 0, the “Plant response rating, Rice” value (rice; POSTEMERGENCE, Rate 10 g/ha) was 3 and the “Plant response rating, Rice” value (rice; POSTEMERGENCE, Rate 50 g/ha) was 3. The “Plant response rating, Rice” value (rice; PREEMERGENCE, Rate 50 g/ha) was 0, the “Plant response rating, Nutsedge” value (purple nutsedge; POSTEMERGENCE, Rate 10 g/ha) was 2 and the “Plant response rating, Nutsedge” value (purple nutsedge; POSTEMERGENCE, Rate 50 g/ha) was 4. The “Plant response rating, Nutsedge” value (purple nutsedge; PREEMERGENCE, Rate 50 g/ha) was 0, the “Plant response rating, Barnyardgrass” value (barnyardgrass; POSTEMERGENCE, Rate 10 g/ha) was 3 and the “Plant response rating, Barnyardgrass” value (barnyardgrass; POSTEMERGENCE, Rate 50 g/ha) was 3. For the same molecule, the “Plant response rating, Barnyardgrass” value (barnyardgrass; PREEMERGENCE, Rate 10 g/ha) was 0, the “Plant response rating, Barnyardgrass” value (barnyardgrass; PREEMERGENCE, Rate 50 g/ha) was 3 and the “Plant response rating, Chickweed” value (chickweed; POSTEMERGENCE, Rate 10 g/ha) was 8. For the same molecule, the “Plant response rating, Chickweed” value (chickweed; POSTEMERGENCE, Rate 50 g/ha) was 10, the “Plant response rating, Chickweed” value (chickweed; PREEMERGENCE, Rate 10 g/ha) was 6 and the “Plant response rating, Chickweed” value (chickweed; PREEMERGENCE, Rate 50 g/ha) was 9. The “Plant response rating, Sugar beet” value (sugar beet; POSTEMERGENCE, Rate 10 g/ha) was 10, the “Plant response rating, Sugar beet” value (sugar beet; POSTEMERGENCE, Rate 50 g/ha) was 10 and the “Plant response rating, Sugar beet” value (sugar beet; PREEMERGENCE, Rate 50 g/ha) was 9. For the same molecule, the “Plant response rating, Bedstraw” value (bedstraw; POSTEMERGENCE, Rate 10 g/ha) was 9, the “Plant response rating, Bedstraw” value (bedstraw; POSTEMERGENCE, Rate 50 g/ha) was 9 and the “Plant response rating, Bedstraw” value (bedstraw; PREEMERGENCE, Rate 10 g/ha) was 6. For the same molecule, the “Plant response rating, Bedstraw” value (bedstraw; PREEMERGENCE, Rate 50 g/ha) was 8, the “Plant response rating, Crabgrass” value (crabgrass; POSTEMERGENCE, Rate 10 g/ha) was 2 and the “Plant response rating, Crabgrass” value (crabgrass; POSTEMERGENCE, Rate 50 g/ha) was 3. For the same molecule, the “Plant response rating, Crabgrass” value (crabgrass; PREEMERGENCE, Rate 10 g/ha) was 0, the “Plant response rating, Crabgrass” value (crabgrass; PREEMERGENCE, Rate 50 g/ha) was 0 and the “Plant response rating, Rape” value (rape; POSTEMERGENCE, Rate 10 g/ha) was 10. The “Plant response rating, Rape” value (rape; POSTEMERGENCE, Rate 50 g/ha) was 10, the “Plant response rating, Rape” value (rape; PREEMERGENCE, Rate 50 g/ha) was 0 and the “Plant response rating, Cheatgrass” value (cheatgrass; POSTEMERGENCE, Rate 10 g/ha) was 4. The “Plant response rating, Cheatgrass” value (cheatgrass; POSTEMERGENCE, Rate 50 g/ha) was 6, the “Plant response rating, Cheatgrass” value (cheatgrass; PREEMERGENCE, Rate 10 g/ha) was 3 and the “Plant response rating, Cheatgrass” value (cheatgrass; PREEMERGENCE, Rate 50 g/ha) was 5. The “Plant response rating, Lambsquarter” value (lambsquarters; POSTEMERGENCE, Rate 10 g/ha) was 9, the “Plant response rating, Lambsquarter” value (lambsquarters; POSTEMERGENCE, Rate 50 g/ha) was 10 and the “Plant response rating, Lambsquarter” value (lambsquarters; PREEMERGENCE, Rate 50 g/ha) was 10. The “Plant response rating, Blackgrass” value (blackgrass; POSTEMERGENCE, Rate 10 g/ha) was 4, the “Plant response rating, Blackgrass” value (blackgrass; POSTEMERGENCE, Rate 50 g/ha) was 7 and the “Plant response rating, Blackgrass” value (blackgrass; PREEMERGENCE, Rate 10 g/ha) was 3. The “Plant response rating, Blackgrass” value (blackgrass; PREEMERGENCE, Rate 50 g/ha) was 6, the “Plant response rating, Cotton” value (cotton; POSTEMERGENCE, Rate 10 g/ha) was 10 and the “Plant response rating, Cotton” value (cotton; POSTEMERGENCE, Rate 50 g/ha) was 10. The “Plant response rating, Cotton” value (cotton; PREEMERGENCE, Rate 10 g/ha) was 0, the “Plant response rating, Cotton” value (cotton; PREEMERGENCE, Rate 50 g/ha) was 2 and the “Plant response rating, Giant foxtail” value (giant foxtail; POSTEMERGENCE, Rate 10 g/ha) was 5. For the same molecule, the “Plant response rating, Giant foxtail” value (giant foxtail; POSTEMERGENCE, Rate 50 g/ha) was 6, the “Plant response rating, Giant foxtail” value (giant foxtail; PREEMERGENCE, Rate 10 g/ha) was 0 and the “Plant response rating, Giant foxtail” value (giant foxtail; PREEMERGENCE, Rate 50 g/ha) was 2. For the same molecule, the “Plant response rating, Wild oat” value (wild oat; POSTEMERGENCE, Rate 10 g/ha) was 4, the “Plant response rating, Wild oat” value (wild oat; POSTEMERGENCE, Rate 50 g/ha) was 7 and the “Plant response rating, Wild oat” value (wild oat; PREEMERGENCE, Rate 50 g/ha) was 5. The “Plant response rating, Corn” value (corn; POSTEMERGENCE, Rate 10 g/ha) was 3, the “Plant response rating, Corn” value (corn; POSTEMERGENCE, Rate 50 g/ha) was 4 and the “Plant response rating, Corn” value (corn; PREEMERGENCE, Rate 50 g/ha) was 0.
